Assay in all cases: NCI tumour cell line growth inhibition, 48 h
Test [1] concerns T-47D breast.
Test [2] relates to SF-539 CNS.
In test [3] the test system is EKVX NSCLC.
For test [4], the system named is SK-MEL-28 melanoma.
Test [5] concerns HS 578T breast.
Test [6] has as its system IGROV1 ovarian.
Test [7] relates to SK-OV-3 ovarian.
In test [8] the test system is SN12C renal.
Test [9] concerns UACC-62 melanoma.
In test [10] the test system is OVCAR-3 ovarian.

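All cell lines were grown in 96-well plates and treated with compound for 48 hours. Here, GI50 denotes the concentration required for 50% inhibition of growth. At the TGI there is no net growth.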

Drawing on PubChem BioAssay (NCI), this text covers GI50 and TGI for 17 molecules.

As for `N#CCN1CCn2c1nsc2=S`, the GI50 in test [1], in [2], in test [3], in test [4], in test [5] and in test [6] was greater than 100 µM in each case. Also, the GI50 in test [7], in test [8], in test [9] and in [10] was greater than 100 µM in each case. Further, the TGI in test [1], in test [2], in test [3], in test [4], in [5] and in test [6] was greater than 100 µM in each case. Besides, the TGI in test [7], in [8], in test [9] and in test [10] was greater than 100 µM each time.

In the case of `Cc1cc[n+]2c(c1)-c1cc(C)cc[n+]1CC2`, the TGI in test [1], in test [2], in test [3], in [4], in test [5] and in [6] was greater than 100 µM each time. For the same molecule, the TGI in [7], in test [8], in test [9] and in [10] was greater than 100 µM in each case.

For `O=C(O)CCC(=O)c1ccc2sc3ccccc3c2c1`, the TGI in test [1], in test [2], in test [3], in [4], in test [5] and in test [6] was greater than 100 µM throughout. In addition, the TGI in [7], in [8], in test [9] and in test [10] was greater than 100 µM throughout.

For `O=C(O)c1cccc(C(=O)O)c1S(=O)Cc1ccccc1` (stereo not given), the TGI in [1], in test [2], in test [3], in test [4], in [5] and in [6] was greater than 100 µM throughout. The TGI in test [7], in [8], in test [9] and in test [10] was greater than 100 µM each time.

Regarding `C[C@]12CC[C@@H]3c4cc(OC(F)F)c(OS(N)(=O)=O)cc4CC[C@H]3[C@@H]1CC[C@@H]2O`, the GI50 is 0.445 µM in test [1]; 0.333 µM in test [2]; 0.709 µM in [3]; 1.43 µM in test [4]; 0.366 µM in test [5]; 0.646 µM in test [6]. Moreover, the GI50 in [7] is 0.683 µM; in test [8] it was 0.608 µM; in [9] it was 0.299 µM; in [10] it was 0.39 µM. Also, the TGI was found to be 43.2 µM in [1]; 4.58 µM in test [2]; 54.8 µM in test [3]; 24.6 µM in test [4]; 30.2 µM in [5]; 24.9 µM in test [6]. Moreover, the TGI came to 76.9 µM in test [7], 19.1 µM in [8], 16.7 µM in [9] and 11.1 µM in test [10].

On to `Oc1ccc(C(c2ccc(O)cc2)c2ccc(Br)cn2)cc1`, for which the GI50 is 0.177 µM in [1]; 5.28 µM in test [2]; 0.358 µM in test [3]; 21.3 µM in [4]; 0.242 µM in test [5]; 0.476 µM in test [6]. The GI50 in test [7] is 12.5 µM; in test [8], 0.325 µM; in test [9] it was 3.71 µM; in [10], 0.0963 µM. In addition, the TGI in [1] was 0.531 µM; in test [2], 27.6 µM; in test [3], 3.85 µM; in [4], 60 µM; in test [5], 0.593 µM; in test [6], 42.7 µM. In addition, the TGI in test [7] came out at 65.4 µM; in test [8], 3.82 µM; in [9], 15.5 µM; in [10], 0.411 µM.

`COC(=O)CCCCC(=O)c1c(C)[nH]c(/C=C2\N=C(c3ccc[nH]3)C=C2OC)c1C`: the GI50 in test [1] was 0.723 µM; in test [2], 1.15 µM; in test [3], 1.14 µM; in [4], 1.17 µM; in test [5], 1.02 µM; in test [6], 1.22 µM. In addition, the GI50 was 2.25 µM in [7], 1.1 µM in test [8], 1.25 µM in test [9] and 0.88 µM in test [10]. In addition, the TGI in [1] was 2.36 µM; in [2], 2.47 µM; in test [3], 2.61 µM; in test [4], 2.47 µM; in test [5], 3.05 µM; in [6], 2.57 µM. Moreover, the TGI in test [7] worked out at 4.4 µM; in test [8], 2.47 µM; in test [9], 2.69 µM; in [10] it was 2.24 µM.

For the molecule `COc1ccc(N(CC(=O)NCCC[Te]c2ccccc2)C(=O)CNC(=O)OC(C)(C)C)cc1`, the GI50 was 11 µM in test [1]; 2.14 µM in test [2]; 0.343 µM in [3]; 3.07 µM in [4]; 2.77 µM in test [5]; 2.24 µM in test [6]. For the same molecule, the GI50 in [7] was 2.34 µM; in test [8], 2.06 µM; in test [9], 1.65 µM; in test [10] it was 3 µM. For the same molecule, the TGI came out at 40.9 µM in test [1]; 4.84 µM in test [2]; 2.35 µM in test [3]; 10.1 µM in test [4]; 7.31 µM in [5]; 5.42 µM in [6]. Besides, the TGI in test [7] was 4.83 µM; in test [8] it was 4.97 µM; in [9], 3.79 µM; in test [10] it was 7.88 µM.

As for `C[N+](C)(C)CC1CCCC1=O` (stereo not given), the TGI in test [1] was determined as 0.448 µM; in [2], 6.05 µM; in [3], 4.62 µM; in test [4] it was 3.72 µM; in test [5], 16.6 µM; in test [6] it was 32.3 µM. Moreover, the TGI in test [7] turned out to be 30.4 µM; in [8] it was 5.56 µM; in test [9] it was 5.67 µM; in test [10], 6.87 µM.

As for `CC(C)(O)CNc1nc(Nc2ccnc(C(F)(F)F)c2)nc(-c2cccc(C(F)(F)F)n2)n1`, the GI50 is 17.7 µM in test [1]; 16.6 µM in test [2]; 21.4 µM in [3]; 17.8 µM in [4]; 27.8 µM in test [5]; 28.6 µM in test [6]. Besides, the GI50 in test [7] was 26.6 µM; in test [8], 19.1 µM; in [9], 16.4 µM; in test [10], 20.1 µM. The TGI in test [1] turned out to be 56.7 µM; in test [2], 42.7 µM; in test [3], 64.1 µM; in test [4], 36.2 µM; in test [5], 75.9 µM; in test [6], 74.5 µM. For the same molecule, the TGI in [7] turned out to be 68.3 µM; in test [8] it was 54.4 µM; in [9] it was 32.6 µM; in test [10] it was 52 µM.

Turning to `OC(C#Cc1ccccc1)(c1ccccc1)c1ccccc1`, the TGI is 78.1 µM in test [1]; greater than 100 µM in test [2]; 82.4 µM in test [3]; greater than 100 µM in test [4]; greater than 100 µM in [5]; greater than 100 µM in test [6]. Further, the TGI in [7] is greater than 100 µM; in test [8], greater than 100 µM; in test [9], greater than 100 µM; in [10], 85.3 µM.

For the molecule `c1ccc(CCc2cccnc2)nc1`, the TGI in test [1], in test [2], in test [3], in test [4], in [5] and in test [6] was greater than 100 µM each time. Also, the TGI in test [7], in test [8], in test [9] and in [10] was greater than 100 µM throughout.

`Oc1cccc2ccc(N/N=C/c3cc(CN4CCOCC4)c(O)c4ncccc34)nc12`: the GI50 in test [1] is 0.0274 µM; in [2], 0.0352 µM; in [3], 0.0962 µM; in test [4] it was 0.0634 µM; in test [5] it was 0.0479 µM; in test [6], 0.066 µM. In addition, the GI50 in [7] was 0.0272 µM; in test [8] it was 0.0348 µM; in test [9], 0.0339 µM; in test [10], 0.0392 µM. Also, the TGI was found to be 0.682 µM in test [1]; 1.64 µM in test [2]; 11.2 µM in test [3]; 6.19 µM in [4]; 17.2 µM in test [5]; 4.94 µM in test [6]. Moreover, the TGI in test [7] turned out to be 0.368 µM; in [8] it was 7.82 µM; in test [9], 0.55 µM; in test [10] it was 2.09 µM.

`COC1=C(OC)C(=O)C(SC/C=C(\C)CCCC(C)CCCC(C)CCCC(C)C)=CC1=O` (stereo not given): the GI50 in test [1] is 0.478 µM; in [2], 1.41 µM; in [3], 1.11 µM; in test [4], 1.04 µM; in [5], 0.709 µM; in test [6], 2.94 µM. Further, the GI50 in [7] is 2.47 µM; in [8] it was 0.741 µM; in test [9] it was 0.797 µM; in [10], 0.857 µM. In addition, the TGI in test [1] was 12.1 µM; in test [2] it was greater than 92.2 µM; in [3], greater than 37.7 µM; in test [4] it was greater than 100 µM; in test [5], greater than 48.4 µM; in test [6] it was greater than 29.2 µM. Moreover, the TGI in [7] is greater than 91.6 µM; in test [8], greater than 100 µM; in test [9] it was greater than 100 µM; in test [10], greater than 100 µM.

In the case of `Cc1cccc2c3c(sc12)C(c1ccc(Cl)cc1)C(C#N)=C(N)O3` (stereo not given), the GI50 is 0.411 µM in test [1]; 0.299 µM in test [2]; 0.57 µM in test [3]; 3.69 µM in test [4]; 0.274 µM in test [5]; 0.426 µM in [6]. In addition, the GI50 in test [7] was 3.59 µM; in test [8], 0.544 µM; in [9], 0.327 µM; in [10], 0.384 µM. The TGI amounted to 25.3 µM in test [1]; 1.14 µM in [2]; 17.8 µM in test [3]; 20.7 µM in test [4]; 1.48 µM in test [5]; 11.8 µM in test [6]. In addition, the TGI in test [7] was found to be 27.2 µM; in [8] it was 11.2 µM; in test [9] it was 11.3 µM; in test [10], 3.16 µM.

Regarding `OCCNC1c2cc(Cl)ccc2-c2c(Cl)cc(Cl)cc21` (stereo not given), the TGI in [1] is greater than 100 µM; in test [2], greater than 100 µM; in [3], greater than 100 µM; in test [4], greater than 100 µM; in [5] it was greater than 100 µM; in [6] it was 47 µM. In addition, the TGI in test [7] was greater than 100 µM; in test [8], 86.3 µM; in [9], greater than 100 µM; in test [10] it was 80 µM.

On to `CC1OC(OC2C(O)CC(OC3C(O)CC(OC4CCC5(C)C(CCC6C5CC(O)C5(C)C(C7=CC(=O)OC7)CCC65O)C4)OC3C)OC2C)CC(O)C1O` (stereo not given), for which the GI50 in test [1] is 0.0538 µM; in test [2], 0.0427 µM; in test [3] it was 0.0351 µM; in test [4], 0.152 µM; in test [5], 0.042 µM; in test [6] it was 0.127 µM. Further, the GI50 in test [7] was 0.0513 µM; in test [8], 0.0391 µM; in test [9], 0.157 µM; in [10], 0.033 µM. Moreover, the TGI came to 0.292 µM in test [1]; 0.15 µM in test [2]; 0.121 µM in test [3]; 0.302 µM in [4]; 2.3 µM in [5]; 1.11 µM in test [6]. Further, the TGI was 0.171 µM in test [7], 0.248 µM in [8], 0.333 µM in test [9] and 0.113 µM in test [10].
